Our source for the activity change, negative = cytotoxicity and AC50 values is PubChem BioAssay AID1053192 (Broad Institute, 2014).

Results filed as inconclusive are left out. Calls of active or inactive are those of the source.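 How the source made its calls: active means cytotoxic compounds whose falling curve has a midpoint dose at most twice the top valid dose; inconclusive means flat fit losing 30 to 70% signal, or poor fit; inactive means the rest.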

Experiment [1] in a line: viability loss in HepG2 hepatoma cells – cell-based, CellTiter-Glo luminescence, 72 h, dry powder, cytotoxicity control, dose response (AID 1053192). To be noted: HepG2 viability, CellTiter-Glo ATP luminescence, 72 h; at 50 µM (top of the series). (Cellular ATP, detected with luciferase, serves as a proxy for viable cell number.)
In experiment [2] the test system is HepG2 viability, CellTiter-Glo ATP luminescence, 72 h. The description is as above.

For `O=C(c1c(F)cccc1F)N(Cc1ccccc1)Cc1ccccc1`, the activity change, negative = cytotoxicity in experiment [1] was -4.81% (inactive).
Consider `Cc1ccc(CSc2nc3[nH]ncc3c(=O)[nH]2)cc1`, for which, in experiment [1], the activity change, negative = cytotoxicity was -34.4% (inactive).
On the same count and under the same terms, the same measure for `CNc1ccccc1C(C)(C)c1cc(-c2cccc(OC)c2)no1`: -1.6% (inactive); for `Cc1ccc(S(=O)(=O)NCc2ccc3c(c2)cc(C)n3C)cc1`: -22.2% (inactive).
Consider `Cc1cc(C)c(S(=O)(=O)NCCn2c(C)cc3ccccc32)c(C)c1`, for which, in experiment [1], the activity change, negative = cytotoxicity was 18.2% (inactive).
On the same count and under the same terms, the same measure for `Cc1cccc(NC(=O)NCc2ccc3c(c2)cc(C)n3C)c1`: -2.27% (inactive); for `Cc1cc2ccccc2n1CCNC(=O)COc1ccc2ccccc2c1`: 21.7% (inactive).
The same measure, in the same setting: the same measure for `Cc1cc2cc(CNC(=O)Nc3ccc(Cl)c(Cl)c3)ccc2n1C`: -3.46% (inactive).
Regarding `O=C(O)C1CCN(c2nc(-c3ccccc3)c3cc(Br)ccc3n2)CC1`, the activity change, negative = cytotoxicity in experiment [1] was 1.7% (inactive).
As a reminder, the AC50 is the concentration at which the activity in the assay is half-maximal. On to `OCc1ccc(-c2nn(Cc3ccccc3)c3ccccc23)o1`, for which the AC50 in experiment [2] is 8.07 µM.
For `COc1ccc(Nc2ccccc2N)cc1`, the activity change, negative = cytotoxicity in experiment [1] is 4.91% (inactive).
Regarding `CCc1cccc2c1NC1(CCCC1)CC2C` (configuration not stated), the activity change, negative = cytotoxicity in experiment [1] was -13.5% (inactive).
